Assays:
E. coli GFP [1] = assay: Antibiotic susceptibility of bulky bacteria on agar plates (E-test); assay type: cell-based, Escherichia coli (ATCC 25922 GFP)
Method: (§1) Escherichia coli (E. coli) (ATCC 25922 GFP™) was chosen as a model bacterium. Ampicillin and gentamicin were chosen as model antibiotic drugs. The operational parameters were optimized to isolate 0 or 1 bacterium in each chamber. For the determination of minimum inhibitory concentration (MIC), fluorescence intensity of the sample was measured via inverted fluorescence microscope at 2 hours intervals, during 6 hours of incubation in a temperature-controlled chamber at 37° C. The time-dependent morpho-structural variabilities of bacterium were characterized by a software. […] 0.25 μg/ml GM inhibits bulky E. coli GFP growth on agar plates and microfluidic chip. On the contrary, 0.1 μg/ml GM inhibits growth of ˜90% E. coli GFP in the microfluidic chip, and resistant subpopulation continue growing after 4 h. The present invention shed light on breakthrough development in bacterial resistance research and rapid drug testing applications.
The multi-parametric motion-analysis incorporating line length, elongation ratio, circularity, line speed, path speed and intensity are found useful for the identification of resistance and susceptibility of E. coli in 4 hours. […] However, resistant subpopulation continues growing after 4 h.

E. coli GFP [2] = assay: Antibiotic susceptibility testing in the microfluidic chip (fluorescence, MIC determination); assay type: cell-based, Escherichia coli (ATCC 25922 GFP)
Method: as §1, with “applications. […]” for “applications.”
Step 3, The morpho-structural changes and Dynamic phenotypic analysis of bacterium were evaluated by microscopy methods. […] In this and the following examples, E. coli is monitored during the first 6 hours and after 21 hours of incubation at 37° C. inside a temperature-controlled chamber placed on the microscope-stage. […]

Substance: gentamicin [GM]
- concentration that inhibits bulky E. coli GFP growth (MIC) (E. coli GFP [1]): 0.25 µg/mL
- share of E. coli GFP whose growth is inhibited (E. coli GFP [2]; 0.1 μg/ml GM, resistant subpopulation continues growing after 4 h): ~90%
- concentration that inhibits bulky E. coli GFP growth (MIC) (E. coli GFP [2]; bulky bacteria, 37° C., 6 hours incubation): 0.25 µg/mL

From US20240384321A1, “Microfluidic chip and use thereof for continuous monitoring of bacterium intended for motion, growth and morphology detection” (National Health Research Institutes, priority 2023, published 2024)
